# Experiments:
# Format in all cases: cell-based
# [1] = tested on: Clostridium ljungdahlii; assay: Formation of acetic acid and ethanol from synthesis gas with Clostridium ljungdahlii and refeeding of cysteine
# Method: For the biotransformation of hydrogen and carbon dioxide to acetic acid and ethanol the homoacetogenic bacterium Clostridium ljungdahlii was cultivated on synthesis gas with refeeding of cysteine. All cultivation steps were carried out under anaerobic conditions in pressure-resistant glass bottles that can be closed airtight with a butyl rubber stopper.
# The chemolithoautotrophic cultivation was carried out in a 1 L pressure-resistant glass bottle at 37° C., 100 rpm and a ventilation rate of 3 L/h with a premixed gas with 67% H2, 33% CO2 in an open water bath shaker for 69 h till OD600nm>0.4. The gas was discharged into the medium through a sparger with a pore size of 10 μm, which was mounted in the center of the reactors. Then the cell suspension was centrifuged and the cell pellet was resuspended in fresh CGF1 Medium.
# For the production phase, as many washed cells from the preculture of C. ljungdahlii as necessary for an OD600nm of 0.2 were added to 100 ml mineral medium (CGF1 medium, pH 6.5, 1.4 g/L KOH, 2 g/L (NH4)2SO4, 1 g/L KH2PO4, 1 g/L K2HPO4, 10 mg/L FeSO4×7H2O, 3.8 mg/L MnSO4×1H2O, 246 mg/L MgSO4×7H2O, aerated for 30 min with a premixed gas with 67% H2 and 33% CO2). […] The cultivation was carried out in 500 mL pressure-resistant glass bottles at 37° C., 150 rpm in an open water bath shaker for 163 h which were aerated to an overpressure of 0.8 bar with a premixed gas with 67% H2, 33% CO2 one time a day. The pH was hold >5.0 by intermittent additions of a 140 g/L KOH solution. During the cultivation several 5 mL samples were taken to determinate OD600nm, pH und product formation. […] The determination of the product concentrations was performed by semiquantitative 1H-NMR spectroscopy. As an internal quantification standard sodium trimethylsilylpropionate (T (M) SP) was used.
# [2] = tested on: Clostridium autoethanogenum together with Clostridium kluyveri in a co-culture; assay: Continuous co-culture of Clostridium autoethanogenum and Clostridium kluyveri with low potassium thioacetate concentration
# Method: (§1) The homoacetogenic bacterium Clostridium autoethanogenum was cultivated together with the chain elongating bacterium Clostridium kluyveri in a co-culture on synthesis gas in a mineral medium with potassium thioacetate as reduced sulfur source. The cultivation was carried out under anaerobic conditions in a pressure-resistant stainless steel bubble column loop reactor.
# (§2) The cultivation was run at 37° C. and an overpressure of 2 bar as a continuous fermentation with continuous feeding of 300 L/h of a mixture of water, substrates, salts, trace elements and vitamins. The pH was automatically hold at 5.80 with ammonia feeding. The outlet stream of 300 L/h out of the fermenter was for 98.2% as permeate with cell retention and for 1.8% as purge without cell retention.
# (§3) The culture was previously inoculated with cells from fresh cultures of C. autoethanogenum and C. kluyveri and was already running since >10.000 h full continuously as stable coculture at an optical density (OD600nm) of ˜ 9.0. Fresh medium was continuously fed into the reactor and fermentation broth continuously removed from the reactor with a dilution rate of 2.8 d^−1. During cultivation several 5 mL samples were taken to determinate OD600nm, PH und product formation. The determination of the product concentrations was performed by semiquantitative 1H-NMR spectroscopy. As an internal quantification standard sodium trimethylsilylpropionate (T (M) SP) was used.
# [3] = tested on: Clostridium autoethanogenum together with Clostridium kluyveri in a co-culture; assay: Continuous co-culture of Clostridium autoethanogenum and Clostridium kluyveri with high potassium thioacetate concentration
# Method: as §1, §2
# as §3, with “>13.000” for “>10.000”, “11.8.” for “9.0.”
# [4] = culture C (refed with L-cysteine-hydrochloride) versus cultures A and B, production phase
# [5] = 10.69 mg/L potassium thioacetate in media feed (before decrease)
# [6] = 50 h after decreasing potassium thioacetate in media feed to 10% (1.69 mg/L)
# [7] = 10.69 mg/L potassium thioacetate in media feed (before increase)
# [8] = 50 h, 100 h and 150 h after increasing potassium thioacetate in media feed to 300% (32.07 mg/L)
smiles,measurement,setting,value
"Cl.N[C@@H](CS)C(=O)O [L-cysteine, L-cysteine-hydrochloride]",OD(600 nm),"[1]; culture A, initial 400 mg/L L-cysteine-hydrochloride, no refeed, 0 h",0.206
same,OD(600 nm),"[1]; culture A, initial 400 mg/L L-cysteine-hydrochloride, no refeed, 18.75 h",0.232
same,OD(600 nm),"[1]; culture A, initial 400 mg/L L-cysteine-hydrochloride, no refeed, 41.5 h",0.293
same,OD(600 nm),"[1]; culture A, initial 400 mg/L L-cysteine-hydrochloride, no refeed, 46.75 h",0.281
same,OD(600 nm),"[1]; culture A, initial 400 mg/L L-cysteine-hydrochloride, no refeed, 65.5 h",0.324
same,OD(600 nm),"[1]; culture A, initial 400 mg/L L-cysteine-hydrochloride, no refeed, 69.5 h",0.366
same,OD(600 nm),"[1]; culture A, initial 400 mg/L L-cysteine-hydrochloride, no refeed, 89.75 h",0.324
same,OD(600 nm),"[1]; culture A, initial 400 mg/L L-cysteine-hydrochloride, no refeed, 163.5 h",0.339
same,OD(600 nm),"[1]; culture B, initial 200 mg/L L-cysteine-hydrochloride, no refeed, 0 h",0.197
same,OD(600 nm),"[1]; culture B, initial 200 mg/L L-cysteine-hydrochloride, no refeed, 18.75 h",0.261
same,OD(600 nm),"[1]; culture B, initial 200 mg/L L-cysteine-hydrochloride, no refeed, 41.5 h",0.279
same,OD(600 nm),"[1]; culture B, initial 200 mg/L L-cysteine-hydrochloride, no refeed, 46.75 h",0.269
same,OD(600 nm),"[1]; culture B, initial 200 mg/L L-cysteine-hydrochloride, no refeed, 65.5 h",0.271
same,OD(600 nm),"[1]; culture B, initial 200 mg/L L-cysteine-hydrochloride, no refeed, 69.5 h",0.259
same,OD(600 nm),"[1]; culture B, initial 200 mg/L L-cysteine-hydrochloride, no refeed, 89.75 h",0.241
same,OD(600 nm),"[1]; culture B, initial 200 mg/L L-cysteine-hydrochloride, no refeed, 163.5 h",0.237
same,cell growth,[1]; [4],stronger cell growth than cultures A and B
same,concentrations of acetate and ethanol,[1]; [4],increased more than in culture A and B
same,OD(600 nm),"[1]; culture C, initial 200 mg/L L-cysteine-hydrochloride, refed 200 mg/L after 18, 41, 65, 89 h, 0 h",0.209
same,OD(600 nm),"[1]; culture C, initial 200 mg/L L-cysteine-hydrochloride, refed 200 mg/L after 18, 41, 65, 89 h, 18.75 h",0.245
same,OD(600 nm),"[1]; culture C, initial 200 mg/L L-cysteine-hydrochloride, refed 200 mg/L after 18, 41, 65, 89 h, 41.5 h",0.339
same,OD(600 nm),"[1]; culture C, initial 200 mg/L L-cysteine-hydrochloride, refed 200 mg/L after 18, 41, 65, 89 h, 46.75 h",0.335
same,OD(600 nm),"[1]; culture C, initial 200 mg/L L-cysteine-hydrochloride, refed 200 mg/L after 18, 41, 65, 89 h, 65.5 h",0.399
same,OD(600 nm),"[1]; culture C, initial 200 mg/L L-cysteine-hydrochloride, refed 200 mg/L after 18, 41, 65, 89 h, 69.5 h",0.392
same,OD(600 nm),"[1]; culture C, initial 200 mg/L L-cysteine-hydrochloride, refed 200 mg/L after 18, 41, 65, 89 h, 89.75 h",0.431
same,OD(600 nm),"[1]; culture C, initial 200 mg/L L-cysteine-hydrochloride, refed 200 mg/L after 18, 41, 65, 89 h, 95.5 h",0.434
same,OD(600 nm),"[1]; culture C, initial 200 mg/L L-cysteine-hydrochloride, refed 200 mg/L after 18, 41, 65, 89 h, 163.5 h",0.481
CC(=O)[S-].[K+] [potassium thioacetate],CO2 turnover,[2]; [5],70%
same,OD(600 nm),[2]; [5],9.0
same,steady state concentration acetate,[2]; [5],~0.90 g/L
same,steady state concentration butyrate,[2]; [5],~0.91 g/L
same,steady state concentration ethanol,[2]; [5],about 3.27 g/L
same,steady state concentration hexanoate,[2]; [5],~3.61 g/L
same,CO2 turnover,[2]; [6],50%
same,OD(600 nm),[2]; [6],7.60
same,ethanol concentration,[2]; [6],4.37 g/L
same,steady state concentration acetate,[2]; [6],0.50 g/L
same,steady state concentration butyrate,[2]; [6],0.53 g/L
same,steady state concentration hexanoate,[2]; [6],2.41 g/L
same,steady state concentration acetate,[3]; [7],~1.10 g/L
same,steady state concentration butyrate,[3]; [7],~1.08 g/L
same,steady state concentration ethanol,[3]; [7],about 2.67 g/L
same,steady state concentration hexanoate,[3]; [7],~3.75 g/L
same,optical density (OD600nm),"[3]; 10.69 mg/L potassium thioacetate in media feed (before increase), stable coculture",~11.8
same,CO2 turnover,[3]; [8],70%
same,OD(600 nm),[3]; [8],11.80
same,steady state concentrations of the educts and products,[3]; [8],stayed on the same level

# — patent publication US20250115864A1, “A FERMENTATION MEDIUM COMPRISING SULPHUR” (Evonik Operations GmbH, priority 2021, published 2025)
